According to patent EP0187355A1, “Process for preparing beta-lactam antibiotics” (E.R. Squibb & Sons, Inc., priority 1981, dated 1982):
Where a name gives a salt, the structure may show the parent alone. Read-outs that look alike come from different tables or passages of the source.

How the values were obtained:
Assay in all cases: MIC, agar dilution
Assay type in all cases: cell-based
[1] = system: Acinetobacter calcoaceticus, 8333; settings: Acinetobacter calcoaceticus, 8333, 18 h, K-10 agar, 10^4 CFU, 37°C, read-out: M.I.C.
Outline: (§1)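 Test strains are first grown in broth at 37°C for 18–20 hours, then diluted 1:100. Compounds are serially halved and mixed into K-10 agar at final levels from 100 to 0.05 µg/ml. Each plate receives about 10^4 CFU per organism, and growth is scored after 18 hours at 37°C.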

[2] = system: Citrobacter freundii, 9518; settings: K-10 agar, 10^4 CFU, 37°C, 18 hours, read-out: M.I.C.
Outline: as §1

[3] = system: Enterobacter aerogenes, 10078; settings: Klebsiella aerogenes, 10078, 18 h, Enterobacter aerogenes, 10078; K-10 agar, 10^4 CFU, 37°C, 18 hours; read-out: M.I.C.
Outline: as §1

Escherichia coli, 10857 = settings: Escherichia coli, 10857, 18 h, K-10 agar, 10^4 CFU, 37°C
Outline: as §1

Escherichia coli, 10896 = settings: K-10 agar, 10^4 CFU, 37°C, 18 hours
Outline: as §1

Escherichia coli, 10909 = settings: K-10 agar, 10^4 CFU, 37°C, 18 hours
Outline: as §1

Escherichia coli, 8294 = settings: Escherichia coli, 8294, 18 h, K-10 agar, 10^4 CFU, 37°C
Outline: as §1

[4] = system: Klebsiella aerogenes, 10440; settings: K-10 agar, 10^4 CFU, 37°C, 18 hours, read-out: M.I.C.
Outline: as §1

[5] = system: Klebsiella pneumoniae, 9527; settings: Klebsiella pneumoniae, 9527, 18 h, K-10 agar, 10^4 CFU, 37°C, read-out: M.I.C.
Outline: as §1

Proteus mirabilis, 3855 = settings: Proteus mirabilis, 3855, 18 h, K-10 agar, 10^4 CFU, 37°C
Outline: as §1

Proteus rettgeri, 8479 = settings: Providencia rettgeri, K-10 agar, 10^4 CFU, 37°C, 18 hours, read-out: M.I.C.
Outline: as §1

Proteus vulgaris, 9416 = settings: K-10 agar, 10^4 CFU, 37°C
Outline: as §1

[6] = system: Pseudomonas aeruginosa, 8329; settings: K-10 agar, 10^4 CFU, 37°C, 18 hours, read-out: M.I.C.
Outline: as §1

[7] = system: Pseudomonas aeruginosa, 9545; settings: Pseudomonas aeruginosa, 9545, 18 h, K-10 agar, 10^4 CFU, 37°C, read-out: M.I.C.
Outline: as §1

Salmonella typhosa, 1195 = settings: Salmonella enterica, TYPHOSA, 18 h, K-10 agar, 10^4 CFU, 37°C
Outline: as §1

[8] = system: Serratia marcescens, 9783; settings: Serratia marcescens, 9783, 18 h, K-10 agar, 10^4 CFU, 37°C, read-out: M.I.C.
Outline: as §1

Shigella sonnei, 8449 = settings: Shigella sonnei, 8449, 18 h, K-10 agar, 10^4 CFU, 37°C
Outline: as §1

[9] = system: Staphylococcus aureus, 10165; settings: Staphylococcus aureus, 10165; K-10 agar, 10^4 CFU, 37°C, 18 hours; read-out: M.I.C.
Outline: as §1

[10] = system: Staphylococcus aureus, 1276; settings: Staphylococcus aureus, 1276; K-10 agar, 10^4 CFU, 37°C, 18 hours; read-out: M.I.C.
Outline: as §1

[11] = system: Staphylococcus aureus, 2399; settings: Staphylococcus aureus, 2399, 18 h, Staphylococcus aureus, 2399; K-10 agar, 10^4 CFU, 37°C, 18 hours; read-out: M.I.C.
Outline: as §1

[12] = system: Staphylococcus aureus, 2400; settings: Staphylococcus aureus, 2400; K-10 agar, 10^4 CFU, 37°C, 18 hours; read-out: M.I.C.
Outline: as §1

[13] = system: Streptococcus faecalis, 9011; settings: Enterococcus faecalis; Streptococcus faecalis, 9011; K-10 agar, 10^4 CFU, 37°C, 18 hours; read-out: M.I.C.
Outline: as §1

[14] = system: Enterobacter cloacae, 8236; settings: Enterobacter cloacae, 8236, 18 h, K-10 agar, 10^4 CFU, 37°C
Outline: (§2)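 Broth cultures grown 18-20 h at 37°C, diluted 1:100 in K-10 broth, applied by multipoint inoculator at 10^4 CFU onto K-10 agar holding twofold compound dilutions, 100 to 0.05 µg/ml final. MIC taken as lowest concentration inhibiting growth.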

Micrococcus luteus, 2495 = settings: Micrococcus luteus, 2495, 18 h, K-10 agar, 10^4 CFU, 37°C, read-out: M.I.C.
Outline: as §2

[15] = system: Streptococcus agalactiae, 9287; settings: Streptococcus agalactiae, 9287, 18 h, K-10 agar, 10^4 CFU, 37°C, read-out: M.I.C.
Outline: as §2

Structure (SMILES)	MIC [1] [µg/mL]	MIC [2] [µg/mL]	MIC [3] [µg/mL]	MIC (Escherichia coli, 10857) [µg/mL]	MIC (Escherichia coli, 10896) [µg/mL]	MIC (Escherichia coli, 10909) [µg/mL]	MIC (Escherichia coli, 8294) [µg/mL]	MIC [4] [µg/mL]	MIC [5] [µg/mL]	MIC (Proteus rettgeri, 8479) [µg/mL]	MIC [6] [µg/mL]	MIC [7] [µg/mL]	MIC (Salmonella typhosa, 1195) [µg/mL]	MIC [8] [µg/mL]	MIC (Shigella sonnei, 8449) [µg/mL]	MIC [9] [µg/mL]	MIC [10] [µg/mL]	MIC [11] [µg/mL]	MIC [12] [µg/mL]	MIC [13] [µg/mL]	further results
CO/N=C(\C(=O)NC1C(=O)N(S(=O)(=O)O)C1(C)C)c1csc(N)n1 (racemic) [Example 25, [3±(Z)]-3-[[(2-Amino-4-thiazolyl) (methoxyimino)-acet^yl]amino]-4,4-dimethyl-2-oxo-1-azetidinesulfonic acid, potassium salt]	> 100	25	100	6.3	25	25	50	100	6.3	0.8	> 100	> 100	12.5	100	25	> 100	> 100	> 100	> 100	> 100	MIC (Proteus mirabilis, 3855): 12.5 µg/mL; MIC (Proteus vulgaris, 9416; Proteus vulgaris, 9416, 18 h): 12.5 µg/mL; MIC [14]: 100 µg/mL; MIC (Micrococcus luteus, 2495): > 100 µg/mL; MIC [15]: > 100 µg/mL
CC1C(NC(=O)C(NC(=O)N2CCN(N)C(=O)C2=O)c2ccccc2)C(=O)N1S(=O)(=O)O (stereo not drawn) [Example 32, [3S(R*)]-3-[[[[(4-Amino-2,3-dioxo-1-piperazinyl)-carbonyl]amino]phenylacetyl]amino]-4-methyl-2-oxo-l-azetidinesulfonic acid, potassium salt]	50	3.1	6.3	0.4	12.5	0.8	3.1	1.6	0.2	0.4	50	6.3	0.2	3.1	6.3	> 100	25	12.5	25	> 100	MIC (Proteus mirabilis, 3855; read-out: M.I.C.): 0.4 µg/mL; MIC (Proteus vulgaris, 9416; 18 hours, read-out: M.I.C.): 0.2 µg/mL; MIC [14]: 6.3 µg/mL; MIC (Micrococcus luteus, 2495): 6.3 µg/mL; MIC [15]: 6.3 µg/mL
C[C@H]1[C@H](NC(=O)OCc2ccccc2)C(=O)N1S(=O)(=O)O [Example 2, (3S-trans)-4-Methyl-2-oxo-3-[[(phenylmethoxy)carbonyl]-amino]-1-azetidinesulfonic acid, potassium salt]	> 100	> 100	> 100	> 100	> 100	> 100	> 100	> 100	> 100	> 100	> 100	> 100	> 100	> 100	> 100	> 100	100	100	100	> 100	MIC (Proteus mirabilis, 3855; read-out: M.I.C.): > 100 µg/mL; MIC (Proteus vulgaris, 9416; 18 hours, read-out: M.I.C.): > 100 µg/mL; MIC [14]: > 100 µg/mL; MIC (Micrococcus luteus, 2495): 100 µg/mL; MIC [15]: 100 µg/mL
C[C@H]1[C@H](NC(=O)Cc2ccccc2)C(=O)N1S(=O)(=O)O [Example 3, (3S-trans)-4-Methyl-2-oxo-3-[(phenylacetyl)amino]-1-azetidinesulfonic acid, potassium salt]	> 100	100	> 100	50	50	25	100	100	100	50	> 100	50	50	50	50	100	50	50	50	> 100	MIC (Proteus mirabilis, 3855; read-out: M.I.C.): 100 µg/mL; MIC (Proteus vulgaris, 9416; 18 hours, read-out: M.I.C.): 100 µg/mL; MIC [14]: > 100 µg/mL; MIC (Micrococcus luteus, 2495): 25 µg/mL; MIC [15]: 25 µg/mL
